Read-outs that look alike come from different tables or passages of the source.
Legend:
Kv1.3 = biological target: T1, Kv1.3 (Homo sapiens, UniProt P22001); assay: Patch clamp assay (QPatch), Kv1.3; format: cell-based; settings: CHO cells stably expressing human Kv1.3, read-out: Potency IC50, Kv1.3
T1 construct: expressed in transfected cells
Method: (§1) Selectivity of Kv1.3 inhibitor peptides for Kv1.3 over other potassium ion channels (Kv1.1, Kv1.2 and Kv1.6) was determined using patch clamp assay.
(§2) Chinese Hamster Ovary (CHO) cell lines stably expressing exogenous human α-subunits of each potassium ion channel were grown and passaged under standard culture conditions.
(§3) The automated, chip-based planar patch clamp device QPatch® was used to quantitate the ionic currents. All recordings were made in the conventional whole-cell configuration after establishment of gigaohm seals. […] During experiments 0.1% (v/v) BSA was included as a vehicle in all external recording solutions. Currents were elicited from a holding potential of −80 mV using a voltage protocol, which shifted the voltage to 30 mV for 500 ms every 15 s.
(§4) Concentration-response relationships were established by cumulatively applying seven escalating concentrations of test sample to an individual cell with a recording period of 2 min per compound application.
(§5) The efficacy was determined as the mean charge for the last three sweeps at the end of each concentration application period from the cursor positions. The percent inhibition for each test dose application period was calculated as the reduction in mean cursor value (charge) relative to the cursor value measured at the end of the vehicle period and used to calculate the IC50 from the concentration response curve.

Kv1.1 = biological target: T2, Kv1.1 (Homo sapiens, UniProt Q09470); assay: Patch clamp assay (QPatch), Kv1.1; format: cell-based; settings: for IC50: QPatch, CHO cells stably expressing human Kv1.1, read-out: Potency IC50, Kv1.1; for Selectivity Kv1.1/Kv1.3: ratio of IC50 Kv1.1/Kv1.3
T2 construct: expressed in transfected cells
Method: as §1, §2, §3, §4, §5

Kv1.2 = biological target: T3, Kv1.2 (Homo sapiens, UniProt P16389); assay: Patch clamp assay (QPatch), Kv1.2; format: cell-based; settings: for IC50: QPatch, CHO cells stably expressing human Kv1.2, read-out: Potency IC50, Kv1.2; for Selectivity Kv1.2/Kv1.3: ratio of IC50 Kv1.2/Kv1.3
T3 construct: expressed in transfected cells
Method: as §1, §2, §3, §4, §5

Kv1.6 = biological target: T4, Kv1.6 (Homo sapiens, UniProt P17658); assay: Patch clamp assay (QPatch), Kv1.6; format: cell-based; settings: for IC50: QPatch, CHO cells stably expressing human Kv1.6, read-out: Potency IC50, Kv1.6; for Selectivity Kv1.6/Kv1.3: ratio of IC50 Kv1.6/Kv1.3
T4 construct: expressed in transfected cells
Method: as §1, §2, §3, §4, §5

[1] = test system: T-cell activation in rat whole blood; assay: Example 4: IL-17A release in thapsigargin stimulated rat whole blood; format: cell-based, rat (Lewis or Sprague-Dawley); settings: 24 Hr, at least 2 replicates, unit inferred, read-out: IC50 (inhibition of IL-17A release)
Procedure, shortened: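 Heparinised whole blood from naïve Lewis or Sprague-Dawley rats preincubated ≥5 min at RT with peptide, then stimulated with thapsigargin (40 μM stock added as one quarter of well volume) for 24 h at 37 °C. Supernatant IL-17A measured by ELISA; IC50 from curves normalised to stimulated and unstimulated controls, ≥2 replicates.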

[2] = test system: T-cell activation in human whole blood; assay: Example 5: IFN-g, IL-2 and IL-17A release in thapsigargin stimulated human whole blood; format: cell-based; settings: 24 Hr, at least 2 replicate experiments
Text: Human whole blood was used to assess the potency of Kv1.3 inhibitor peptides on T-cell activation as determined by release of the cytokines IFN-g, IL-2 and IL-17A after stimulation with thapsigargin. Addition of thapsigargin activates a signalling cascade resulting in T cell proliferation and cytokine production, in which the Kv1.3 ion channel plays a key role. Activity of Kv1.3 inhibitors in human primary T cells can thus be measured in this experimental system.
Human whole blood was obtained from healthy blood donors and was collected after informed consent using Sodium Heparin blood sampling tubes (Becton, Dickinson and Company (BD), Cat #367876). Test peptides were diluted to 4× final testing concentrations in assay buffer (Dulbecco's Modified Eagle's medium (DMEM) with high glucose and GlutaMAX (3.97 mM L-alanine-L-glutamine) (Gibco Cat #61965026) supplemented with 25 mM HEPES buffer, 1 mM Sodium Pyruvate, 100 units/ml Penicillin, 100 μg/ml Streptomycin and 0.05% Casein from bovine milk (Sigma-Aldrich Cat #C4765)) and 25 μl was added to wells of a 96 well tissue culture plate. Then 50 μl human whole blood was added and incubated for minimum 5 minutes at room temperature to allow compound binding. Then 25 μl of 40 μM thapsigargin diluted in assay buffer was added to all wells of the assay plates to activate the cells, followed by incubation for 24 Hr at 37° C./5% CO2 in a humidified box. The assay plates were centrifuged for 10 min at 300 g at 4° C. and the supernatants were transferred to new plates. The concentrations of IFN-g, IL-2 and IL-17A released to the supernatants were measured using a tri-plex human cytokine detection kit (MSD Human U-Plex IFN-g, IL-2 and IL-17A kit; Meso Scale Discovery Cat #K15067L-2) and all three cytokines were measured using a MSD MESO QuickPlex SQ 120 instrument as described by the manufacturer (Meso Scale Discovery, Rockville, Maryland, USA).
To determine the potency of inhibition for the compounds, the cytokine concentration data were fitted using a three parameter logistic dose response model based on the formula Y=Bottom+(Top−Bottom)/(1+IC50/X), where Y is measured cytokine concentrations, X is compound concentrations and Top, bottom and IC50 are parameters fitted using the software Graphpad Prism version 5.04. The IC50 value calculated from the concentration response curve represents the compound concentration that gives an inhibition response halfway between the basal (Bottom) response and the maximal (Top) response.
All values are derived from at least 2 replicate experiments. All of the tested Kv1.3 blockers were able to inhibit cytokine production from human T cells present in human whole blood that was stimulated with thapsigargin.

[3] = test system: human peripheral blood mononuclear cells (PBMCs); assay: Example 3a: IL-2 release from anti-CD3 stimulated human PBMCs; format: cell-based; settings: for IC50: human PBMCs, 5 donors, anti-CD3 0.5 μg/mL, geometric mean, at least 4 replicates, read-out: anti-CD3 PBMC/ IL-2 IC50
Method: Human peripheral blood mononuclear cells (PBMCs) were used to assess the effects of Kv1.3 inhibitor peptides on T-cell activation as determined by IL-2 (cytokine) release after stimulation with anti-CD3.
Human PBMCs were obtained from Precision for Medicine (Frederick, MD). Cells from 5 donors were used. Plate-bound anti-CD3 was used to stimulate bulk T cells in the PBMC preparations. Briefly, 96-well plates were coated with anti-CD3 antibody for 2 hrs at 37° C., using 50 μL of a 0.5 μg/mL anti-CD3 solution diluted in 1×PBS. Thereafter the plates were washed twice.
Cyclosporin A (1 ug/ml) and Vm24 peptide (100 nM) were used as positive controls. Finally, 1×10^5 PBMCs were added to each well in a volume of 100 μL, giving a final volume of 200 μL per well. The plates were incubated for 20-24 hours in a 37° C./5% CO2 incubator. After centrifugation of the plates, 25 μl supernatant was transferred to IL-2 detection plates (MSD Human IL-2 Tissue Culture Kit, cat #K151AHB-2) and IL-2 was measures as described by the manufacturer (Meso Scale Discovery, Rockville, Maryland, USA).
All values derive from at least 4 replicates.

[4] = Example 6: Pharmacokinetic characterisation after s.c. administration; format: in vivo, rat (Sprague Dawley or Wistar); settings: rat, 70 nmol/kg; for AUCINF / Cmax: plasma; for T1/2: plasma terminal elimination half-life
Method: Sprague Dawley or Wistar rats (males with a body weight of approximately 250-350 g) were given a single subcutaneous (s.c.) injection of each peptide to be tested.
Following s.c. administration of the selected peptides (dose 70 nmol/kg, dosing volume either 2 or 5 mL/kg), blood samples were drawn at 15 min, 30 min, 45 min, 60 min, 90 min, 2 h, 3 h, 4 h post-dose. At each sampling time point, samples from the rats were drawn by sublingual bleeding or by tail cut. After last sampling the rats were sacrificed by O2/CO2 anaesthesia. The dosing vehicle was 10 mM phosphate, 0.8% NaCl, 0.05% Polysorbate 20 (pH 6.0).
Plasma samples were analyzed after solid phase extraction (SPE) by liquid chromatography mass spectrometry (LC-MS/MS). Mean plasma concentrations were used for calculation of the pharmacokinetic parameters using the non-compartmental approach in Phoenix WinNonlin 6.4 or a later version. […]. AUCinf is the area under the plasma concentration−time curve extrapolated to infinity (AUCinf=AUClast+Clast/λz, where Clast is the last observed plasma concentration). Cmax is the maximum observed concentration, occurring at Tmax.

[5] = test system: human peripheral blood mononuclear cells (PBMCs); assay: Example 3b: IL-2 release from anti-CD3 stimulated human PBMCs; format: cell-based; settings: 5 donors, anti-CD3 1 μg/ml, geometric mean, at least 6 replicates, read-out: anti-CD3 PBMC/IL-2 IC50
Method: Human peripheral blood mononuclear cells (PBMCs) were used to assess the effects of Kv1.3 inhibitor peptides on T-cell activation as determined by IL-2 release after stimulation with anti-CD3.
Human PBMCs were obtained from Precision for Medicine (Frederick, MD). Cells from 5 donors were used. Plate-bound anti-CD3 was used to stimulate bulk T cells in the PBMC preparations. Briefly, 96-well plates were coated with anti-CD3 antibody for app. 16 hours at 5° C., using 50 μl of a 1 μg/ml anti-CD3 solution diluted in PBS. Thereafter the plates were washed twice.
Peptides were subsequently diluted in medium (RPMI 1640 with Glutamax-I containing, 10% v/v Fetal Bovine Serum, 1% v/v penicillin-streptomycin Solution) and added in a volume of 50 μl. The peptides indicated in Table 4b were used at concentrations ranging from 0.3 pM to 1000 nM (half log dilutions, starting concentrations varying). Cyclosporin A (1 μg/ml) and Vm24 peptide (100 nM) were used as positive controls.
Finally, 50,000 PBMCs in the same medium were added to each well in a volume of 50 μl, giving a final volume of 100 μl per well. The plates were incubated for 20-24 hours in a 370C/5% CO2 incubator. After centrifugation of the plates, 25 μl supernatant was transferred to IL-2 detection plates (MSD Human IL-2 Tissue Culture Kit, cat #K151AHB-2) and IL-2 was measures as described by the manufacturer (Meso Scale Discovery, Rockville, Maryland, USA).
All values derive from at least 6 replicates.

T2 sequence (Q09470 whole entry): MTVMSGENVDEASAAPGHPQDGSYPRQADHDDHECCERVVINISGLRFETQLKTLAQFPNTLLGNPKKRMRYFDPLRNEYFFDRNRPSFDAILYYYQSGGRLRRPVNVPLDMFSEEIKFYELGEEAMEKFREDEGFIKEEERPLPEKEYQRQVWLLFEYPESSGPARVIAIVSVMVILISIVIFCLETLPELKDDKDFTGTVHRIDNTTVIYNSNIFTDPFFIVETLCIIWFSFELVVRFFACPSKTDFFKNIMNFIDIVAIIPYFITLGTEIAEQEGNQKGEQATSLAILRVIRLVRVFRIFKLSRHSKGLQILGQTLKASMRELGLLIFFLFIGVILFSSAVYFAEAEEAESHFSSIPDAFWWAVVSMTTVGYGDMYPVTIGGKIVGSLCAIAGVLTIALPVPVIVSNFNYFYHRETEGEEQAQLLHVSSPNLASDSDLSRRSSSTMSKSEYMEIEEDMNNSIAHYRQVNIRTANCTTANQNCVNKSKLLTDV
T4 sequence (P17658 whole entry): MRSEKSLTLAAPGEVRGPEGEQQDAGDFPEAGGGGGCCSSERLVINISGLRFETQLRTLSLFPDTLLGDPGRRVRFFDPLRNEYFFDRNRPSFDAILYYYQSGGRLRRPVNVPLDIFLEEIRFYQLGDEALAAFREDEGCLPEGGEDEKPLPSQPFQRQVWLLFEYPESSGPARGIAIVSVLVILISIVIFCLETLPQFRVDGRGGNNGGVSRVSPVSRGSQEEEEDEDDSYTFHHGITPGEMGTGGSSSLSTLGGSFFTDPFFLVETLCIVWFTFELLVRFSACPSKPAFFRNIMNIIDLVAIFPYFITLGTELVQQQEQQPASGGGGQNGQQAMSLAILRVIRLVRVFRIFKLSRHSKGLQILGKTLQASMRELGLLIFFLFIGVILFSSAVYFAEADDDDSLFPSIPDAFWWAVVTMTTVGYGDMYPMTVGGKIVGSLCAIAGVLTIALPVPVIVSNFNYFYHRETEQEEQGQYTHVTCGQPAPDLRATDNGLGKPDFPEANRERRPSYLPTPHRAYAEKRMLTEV
T1 sequence (P22001 whole entry): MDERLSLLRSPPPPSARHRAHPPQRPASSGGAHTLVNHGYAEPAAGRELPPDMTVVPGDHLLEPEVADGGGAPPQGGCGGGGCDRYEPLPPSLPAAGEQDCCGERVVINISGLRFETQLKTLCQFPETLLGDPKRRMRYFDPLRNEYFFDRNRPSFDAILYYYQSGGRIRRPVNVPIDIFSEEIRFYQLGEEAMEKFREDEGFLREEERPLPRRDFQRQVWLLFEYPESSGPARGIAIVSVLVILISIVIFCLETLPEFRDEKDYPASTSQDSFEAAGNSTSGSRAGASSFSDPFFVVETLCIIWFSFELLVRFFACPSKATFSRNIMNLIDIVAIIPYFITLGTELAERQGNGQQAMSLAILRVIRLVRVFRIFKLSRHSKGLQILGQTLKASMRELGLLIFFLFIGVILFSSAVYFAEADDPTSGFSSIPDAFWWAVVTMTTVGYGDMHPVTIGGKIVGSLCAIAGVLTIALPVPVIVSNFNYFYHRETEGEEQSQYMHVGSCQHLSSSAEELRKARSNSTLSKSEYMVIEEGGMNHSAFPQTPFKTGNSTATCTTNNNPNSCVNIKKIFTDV
T3 sequence (P16389 whole entry): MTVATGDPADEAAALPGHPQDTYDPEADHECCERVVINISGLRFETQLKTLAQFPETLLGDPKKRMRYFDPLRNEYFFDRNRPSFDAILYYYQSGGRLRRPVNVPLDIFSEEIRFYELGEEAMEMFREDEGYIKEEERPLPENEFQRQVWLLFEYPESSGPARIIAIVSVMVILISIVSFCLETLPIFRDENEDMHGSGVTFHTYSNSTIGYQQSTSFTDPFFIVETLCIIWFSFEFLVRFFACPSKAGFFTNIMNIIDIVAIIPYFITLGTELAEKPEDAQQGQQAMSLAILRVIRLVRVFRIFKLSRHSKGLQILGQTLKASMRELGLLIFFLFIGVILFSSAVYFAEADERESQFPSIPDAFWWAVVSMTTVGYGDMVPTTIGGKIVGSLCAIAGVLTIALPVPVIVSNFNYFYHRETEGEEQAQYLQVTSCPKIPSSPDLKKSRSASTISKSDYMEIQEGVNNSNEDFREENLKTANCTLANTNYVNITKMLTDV

H-C(1)SASVEC(2)KQKC(3)LKAIGSIFGKC(1)[Nle]NKKC(2)KC(3)YPR-NH2 [Peptide 108]
IC50 (Kv1.3): 0.43 nM
IC50 (Kv1.1): > 3000 nM
Selectivity Kv1.1/Kv1.3 (Kv1.1): >7000
IC50 (Kv1.2): > 3000 nM
Selectivity Kv1.2/Kv1.3 (Kv1.2): >7000
IC50 (Kv1.6): > 3000 nM
Selectivity Kv1.6/Kv1.3 (Kv1.6): >7000
IC50 [1]: 1.6 nM
IC50 ([2]; read-out: Average IC50, IFN-g): 0.081 nM
IC50 ([2]; read-out: Average IC50, IL-2): 0.12 nM
IC50 ([2]; read-out: Average IC50, IL-17A): 0.23 nM

H-INVKCSLPQQCIKPCKDAGMRFGKCMNKKCRCYS-OH [Moka1, reference compound]
Selectivity Kv1.1/Kv1.3 (Kv1.1): >300
Selectivity Kv1.2/Kv1.3 (Kv1.2): 31
Selectivity Kv1.6/Kv1.3 (Kv1.6): >300
comparison of IC50 (IL-2 secretion) with ShK186 / Moka1 ([3]; in words): less potent in inhibiting IL-2 secretion

H-NMDMRC(1)SASVEC(2)KQKC(3)LAAIGSIFGKC(1)MNKKC(2)KC(3)YPR-NH2 [Peptide 53]
IC50 (Kv1.3): 0.11 nM
IC50 (Kv1.1): > 3000 nM
Selectivity Kv1.1/Kv1.3 (Kv1.1): >27500
IC50 (Kv1.2): 88 nM
Selectivity Kv1.2/Kv1.3 (Kv1.2): 803
IC50 (Kv1.6): > 3000 nM
Selectivity Kv1.6/Kv1.3 (Kv1.6): >27500
IC50 [1]: 0.69 nM
IC50 ([2]; read-out: Average IC50, IFN-g): 0.11 nM
IC50 ([2]; read-out: Average IC50, IL-2): 0.083 nM
IC50 ([2]; read-out: Average IC50, IL-17A): 0.26 nM
AUCINF [4]: 0.0485 µM·h
Cmax [4]: 31.2 nM
T1/2 [4]: 53.4 min

H-NMDMRC(1)SASVEC(2)KQKC(3)LDAIGSIFGKC(1)MNKKC(2)KC(3)YPR-NH2 [Peptide 21]
IC50 (Kv1.3): 0.21 nM
IC50 (Kv1.1): > 3000 nM
Selectivity Kv1.1/Kv1.3 (Kv1.1): >14300
IC50 (Kv1.2): 99 nM
Selectivity Kv1.2/Kv1.3 (Kv1.2): 471
IC50 (Kv1.6): 2530 nM
Selectivity Kv1.6/Kv1.3 (Kv1.6): 12045
IC50 [3]: 0.1 nM
IC50 [1]: 1.2 nM

H-NMDMRC(1)SASVEC(2)KQKC(3)LKAIGSIFGKC(1)MNKKC(2)KC(3)YPRRRTA-NH2 [Peptide 24]
IC50 (Kv1.3): 0.15 nM
IC50 (Kv1.1): 626 nM
Selectivity Kv1.1/Kv1.3 (Kv1.1): 4280
IC50 (Kv1.2): 28 nM
Selectivity Kv1.2/Kv1.3 (Kv1.2): 191
IC50 (Kv1.6): 215 nM
Selectivity Kv1.6/Kv1.3 (Kv1.6): 1472
IC50 [5]: 0.06 nM
IC50 [1]: 0.57 nM

H-NMDMRC(1)SASVEC(2)KQKC(3)LKAIGSIFGKC(1)[Nle]NKKC(2)KC(3)YPR-NH2 [Peptide 17]
IC50 (Kv1.3): 0.24 nM
IC50 (Kv1.1): > 3000 nM
Selectivity Kv1.1/Kv1.3 (Kv1.1): >12600
IC50 (Kv1.2): 133 nM
Selectivity Kv1.2/Kv1.3 (Kv1.2): 561
IC50 (Kv1.6): 2460 nM
Selectivity Kv1.6/Kv1.3 (Kv1.6): 10360
IC50 [3]: 0.05 nM

H-NMDMRC(1)SASVEC(2)KQKC(3)LKAIGSRFGKC(1)MNKKC(2)KC(3)YPR-NH2 [Peptide 36]
IC50 (Kv1.3): 0.2 nM
IC50 (Kv1.1): > 3000 nM
Selectivity Kv1.1/Kv1.3 (Kv1.1): >15000
IC50 (Kv1.2): 18 nM
Selectivity Kv1.2/Kv1.3 (Kv1.2): 88
IC50 (Kv1.6): 192 nM
Selectivity Kv1.6/Kv1.3 (Kv1.6): 963
IC50 [3]: 0.1 nM
IC50 [1]: 2.5 nM

H-NMDMRC(1)SASVEC(2)KVKC(3)LKAIGSIFGKC(1)MNKKC(2)KC(3)YPR-NH2 [Peptide 18]
IC50 (Kv1.3): 0.42 nM
IC50 (Kv1.1): > 3000 nM
Selectivity Kv1.1/Kv1.3 (Kv1.1): >7200
IC50 (Kv1.2): 66 nM
Selectivity Kv1.2/Kv1.3 (Kv1.2): 159
IC50 (Kv1.6): 912 nM
Selectivity Kv1.6/Kv1.3 (Kv1.6): 2182
IC50 [3]: 0.4 nM
IC50 [1]: 0.88 nM

H-N[Nle]D[Nle]RC(1)SASVEC(2)KQSC(3)LKAIGSIFGKC(1)[Nle]NKKC(2)KC(3)YPR-NH2 [Peptide 49]
IC50 (Kv1.3): 0.37 nM
IC50 (Kv1.1): > 3000 nM
Selectivity Kv1.1/Kv1.3 (Kv1.1): >8200
IC50 (Kv1.2): > 3000 nM
Selectivity Kv1.2/Kv1.3 (Kv1.2): >8200
IC50 (Kv1.6): > 3000 nM
Selectivity Kv1.6/Kv1.3 (Kv1.6): >8200
IC50 [5]: 0.07 nM
IC50 [1]: 0.63 nM

H-PIE[Nle]RC(1)SASVEC(2)KQKC(3)LAAIGSIFGKC(1)[Nle]NKKC(2)KC(3)YPR-OH [Peptide 105]
IC50 (Kv1.3): 0.35 nM
IC50 (Kv1.1): > 3000 nM
Selectivity Kv1.1/Kv1.3 (Kv1.1): >8600
IC50 (Kv1.2): 1970 nM
Selectivity Kv1.2/Kv1.3 (Kv1.2): 5630
IC50 (Kv1.6): > 3000 nM
Selectivity Kv1.6/Kv1.3 (Kv1.6): >8600
IC50 [1]: 0.61 nM
AUCINF [4]: 0.1318 µM·h
Cmax [4]: 58.6 nM
T1/2 [4]: 54.6 min

H-P[Nle]E[Nle]RC(1)SASVEC(2)AQKC(3)LAAIGSIFGKC(1)[Nle]NKKC(2)KC(3)YPR-OH [Peptide 107]
IC50 (Kv1.3): 0.55 nM
IC50 (Kv1.1): > 3000 nM
Selectivity Kv1.1/Kv1.3 (Kv1.1): >5500
IC50 (Kv1.2): > 3000 nM
Selectivity Kv1.2/Kv1.3 (Kv1.2): 5500
IC50 (Kv1.6): > 3000 nM
Selectivity Kv1.6/Kv1.3 (Kv1.6): >5500
IC50 [1]: 1.2 nM
AUCINF [4]: 0.1766 µM·h
Cmax [4]: 68.4 nM
T1/2 [4]: 81.6 min

Reference: patent US20260325605A1, “INHIBITORS” (Zealand Pharma A/S, priority 2022, published 2026)
